Laboratory results from PubChem BioAssay (NCI).
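Five compound concentrations were applied to cells in 96-well plates for 48 hours; endpoints were derived by simple linear interpolation of the resulting dose-response curve. TGI: total growth inhibition.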

How the values were obtained:
Experiment in all cases: NCI anticancer screen, dose series, 48 h
HS 578T breast = system: HS 578T breast
OVCAR-3 ovarian = system: OVCAR-3 ovarian
NCI-H23 lung = system: NCI-H23 lung
IGROV1 ovarian = system: IGROV1 ovarian
NCI-H226 lung = system: NCI-H226 lung
MALME-3M melanoma = system: MALME-3M melanoma
SR leukemia = system: SR leukemia
MCF7 breast = system: MCF7 breast
SF-268 CNS = system: SF-268 CNS
COLO 205 colon = system: COLO 205 colon
KM12 colon = system: KM12 colon
MDA-MB-435 = system: MDA-MB-435
RXF 393 renal = system: RXF 393 renal
A549 NSCLC = system: A549 NSCLC
K-562 leukemia = system: K-562 leukemia
SK-MEL-5 melanoma = system: SK-MEL-5 melanoma
HOP-62 NSCLC = system: HOP-62 NSCLC
ACHN renal = system: ACHN renal
HL-60(TB) leukemia = system: HL-60(TB) leukemia
EKVX NSCLC = system: EKVX NSCLC
RPMI-8226 leukemia = system: RPMI-8226 leukemia
NCI-H460 lung = system: NCI-H460 lung
SW-620 colon = system: SW-620 colon
U251 CNS = system: U251 CNS
MDA-MB-231 breast = system: MDA-MB-231 breast
MOLT-4 leukemia = system: MOLT-4 leukemia
DU-145 prostate = system: DU-145 prostate
OVCAR-5 ovarian = system: OVCAR-5 ovarian
BT-549 breast = system: BT-549 breast
HOP-92 NSCLC = system: HOP-92 NSCLC
UACC-257 melanoma = system: UACC-257 melanoma
OVCAR-8 ovarian = system: OVCAR-8 ovarian
HCT-116 colon = system: HCT-116 colon
UO-31 renal = system: UO-31 renal
LOX IMVI melanoma = system: LOX IMVI melanoma
HCT-15 colon = system: HCT-15 colon
SK-MEL-28 melanoma = system: SK-MEL-28 melanoma
M14 melanoma = system: M14 melanoma
SNB-75 CNS = system: SNB-75 CNS
T-47D breast = system: T-47D breast
HT29 colon = system: HT29 colon
TK-10 renal = system: TK-10 renal
SF-295 CNS = system: SF-295 CNS
NCI/ADR-RES ovarian = system: NCI/ADR-RES ovarian
MDA-N = system: MDA-N
SN12C renal = system: SN12C renal
OVCAR-4 ovarian = system: OVCAR-4 ovarian
A498 renal = system: A498 renal
NCI-H522 lung = system: NCI-H522 lung
UACC-62 melanoma = system: UACC-62 melanoma
CCRF-CEM leukemia = system: CCRF-CEM leukemia
786-0 renal = system: 786-0 renal
CAKI-1 renal = system: CAKI-1 renal
SF-539 CNS = system: SF-539 CNS
SK-OV-3 ovarian = system: SK-OV-3 ovarian
SNB-19 CNS = system: SNB-19 CNS
PC-3 prostate = system: PC-3 prostate
HCC-2998 colon = system: HCC-2998 colon
SK-MEL-2 melanoma = system: SK-MEL-2 melanoma

C/C(=C/CC[C@](C)(OC1OC(CO)C(O)C(O)C1O)[C@H]1CC[C@]2(C)[C@@H]1CC[C@@H]1[C@@]3(C)CC[C@H](O)C(C)(C)[C@@H]3C[C@H](O)[C@]12C)CO (some centres undefined)
TGI (HS 578T breast): 55.3 µM | TGI (OVCAR-3 ovarian): 79.7 µM | TGI (NCI-H23 lung): > 100 µM | TGI (IGROV1 ovarian): > 100 µM | TGI (NCI-H226 lung): 60.4 µM | TGI (MALME-3M melanoma): 56.5 µM | TGI (SR leukemia): > 100 µM | TGI (MCF7 breast): > 100 µM | TGI (SF-268 CNS): 90.7 µM | TGI (COLO 205 colon): 41 µM | TGI (KM12 colon): 47.8 µM | TGI (MDA-MB-435): > 100 µM | TGI (RXF 393 renal): 19.4 µM | TGI (A549 NSCLC): > 100 µM | TGI (K-562 leukemia): 62.2 µM | TGI (SK-MEL-5 melanoma): 39.8 µM | TGI (HOP-62 NSCLC): 69.9 µM | TGI (ACHN renal): > 100 µM | TGI (HL-60(TB) leukemia): 49.9 µM | TGI (EKVX NSCLC): > 100 µM | TGI (RPMI-8226 leukemia): 28.3 µM | TGI (NCI-H460 lung): 48.9 µM | TGI (SW-620 colon): 62.4 µM | TGI (U251 CNS): 28.5 µM | TGI (MDA-MB-231 breast): 91.5 µM | TGI (MOLT-4 leukemia): 53.6 µM | TGI (DU-145 prostate): > 100 µM | TGI (OVCAR-5 ovarian): > 100 µM | TGI (BT-549 breast): 31.2 µM | TGI (HOP-92 NSCLC): > 100 µM | TGI (UACC-257 melanoma): 55.3 µM | TGI (OVCAR-8 ovarian): > 100 µM | TGI (HCT-116 colon): 42.7 µM | TGI (UO-31 renal): > 100 µM | TGI (LOX IMVI melanoma): 33.9 µM | TGI (HCT-15 colon): 57.5 µM | TGI (SK-MEL-28 melanoma): 38.5 µM | TGI (M14 melanoma): > 100 µM | TGI (SNB-75 CNS): 56 µM | TGI (T-47D breast): 60.4 µM | TGI (HT29 colon): 45.1 µM | TGI (TK-10 renal): > 100 µM | TGI (SF-295 CNS): 35.1 µM | TGI (NCI/ADR-RES ovarian): > 100 µM | TGI (MDA-N): 56.6 µM | TGI (SN12C renal): 66.4 µM | TGI (OVCAR-4 ovarian): > 100 µM | TGI (A498 renal): > 100 µM | TGI (NCI-H522 lung): 42.7 µM | TGI (UACC-62 melanoma): 58.3 µM | TGI (CCRF-CEM leukemia): 95.9 µM | TGI (786-0 renal): 61.2 µM | TGI (CAKI-1 renal): 81.6 µM | TGI (SF-539 CNS): 35.6 µM | TGI (SK-OV-3 ovarian): > 100 µM | TGI (SNB-19 CNS): 56.5 µM | TGI (PC-3 prostate): 98.2 µM

COc1cc(O)c2c(c1)C(O)C(O)CC1OC1C(=O)/C=C/CC(C)OC2=O (centres undefined)
TGI (HCC-2998 colon): 16.7 µM | TGI (HS 578T breast): 59.5 µM | TGI (OVCAR-3 ovarian): 16.7 µM | TGI (NCI-H23 lung): 12 µM | TGI (IGROV1 ovarian): 20.1 µM | TGI (NCI-H226 lung): 33.9 µM | TGI (MALME-3M melanoma): 6.91 µM | TGI (SR leukemia): > 45.4 µM | TGI (MCF7 breast): 16.3 µM | TGI (SF-268 CNS): 46.3 µM | TGI (COLO 205 colon): 16.1 µM | TGI (KM12 colon): 27.1 µM | TGI (MDA-MB-435): 8.31 µM | TGI (SK-MEL-2 melanoma): 13.5 µM | TGI (RXF 393 renal): 5.6 µM | TGI (A549 NSCLC): 67.8 µM | TGI (K-562 leukemia): 13.6 µM | TGI (SK-MEL-5 melanoma): 15.4 µM | TGI (HOP-62 NSCLC): 44.3 µM | TGI (ACHN renal): 17 µM | TGI (HL-60(TB) leukemia): > 23.4 µM | TGI (EKVX NSCLC): 35.8 µM | TGI (RPMI-8226 leukemia): 34.5 µM | TGI (NCI-H460 lung): 25.6 µM | TGI (SW-620 colon): 6.84 µM | TGI (U251 CNS): 25 µM | TGI (MDA-MB-231 breast): 16.1 µM | TGI (MOLT-4 leukemia): 17.2 µM | TGI (DU-145 prostate): > 72.2 µM | TGI (OVCAR-5 ovarian): 31 µM | TGI (BT-549 breast): 6.1 µM | TGI (HOP-92 NSCLC): 2.72 µM | TGI (UACC-257 melanoma): 2.48 µM | TGI (OVCAR-8 ovarian): 25 µM | TGI (HCT-116 colon): 12.2 µM | TGI (UO-31 renal): 17.1 µM | TGI (LOX IMVI melanoma): 16.2 µM | TGI (HCT-15 colon): 17 µM | TGI (SK-MEL-28 melanoma): 12 µM | TGI (M14 melanoma): 11.8 µM | TGI (SNB-75 CNS): 24.6 µM | TGI (T-47D breast): 30.4 µM | TGI (HT29 colon): 10 µM | TGI (TK-10 renal): 17.5 µM | TGI (SF-295 CNS): 46.6 µM | TGI (NCI/ADR-RES ovarian): 30.3 µM | TGI (MDA-N): 21.6 µM | TGI (SN12C renal): 11.8 µM | TGI (OVCAR-4 ovarian): > 52.9 µM | TGI (A498 renal): 27.3 µM | TGI (NCI-H522 lung): 8.07 µM | TGI (UACC-62 melanoma): 3.2 µM | TGI (CCRF-CEM leukemia): 8.8 µM | TGI (786-0 renal): 13.8 µM | TGI (CAKI-1 renal): 11.5 µM | TGI (SF-539 CNS): 17.9 µM | TGI (SK-OV-3 ovarian): > 64.9 µM | TGI (SNB-19 CNS): 58.2 µM | TGI (PC-3 prostate): 24.9 µM

COC1=CC2(C=CC1=O)CCN=c1c(O)c3c(c(O)c12)=NC=N3 (centres undefined)
TGI (HCC-2998 colon): > 100 µM | TGI (HS 578T breast): > 100 µM | TGI (OVCAR-3 ovarian): > 100 µM | TGI (NCI-H23 lung): > 100 µM | TGI (IGROV1 ovarian): > 100 µM | TGI (MALME-3M melanoma): > 100 µM | TGI (SR leukemia): > 100 µM | TGI (MCF7 breast): > 100 µM | TGI (SF-268 CNS): > 100 µM | TGI (COLO 205 colon): > 100 µM | TGI (KM12 colon): > 100 µM | TGI (MDA-MB-435): > 100 µM | TGI (SK-MEL-2 melanoma): > 100 µM | TGI (RXF 393 renal): > 100 µM | TGI (A549 NSCLC): > 100 µM | TGI (K-562 leukemia): > 100 µM | TGI (SK-MEL-5 melanoma): > 100 µM | TGI (HOP-62 NSCLC): > 100 µM | TGI (ACHN renal): > 100 µM | TGI (HL-60(TB) leukemia): > 100 µM | TGI (EKVX NSCLC): > 100 µM | TGI (RPMI-8226 leukemia): > 100 µM | TGI (NCI-H460 lung): > 100 µM | TGI (SW-620 colon): > 100 µM | TGI (U251 CNS): > 100 µM | TGI (MDA-MB-231 breast): > 100 µM | TGI (MOLT-4 leukemia): > 100 µM | TGI (DU-145 prostate): > 100 µM | TGI (OVCAR-5 ovarian): > 100 µM | TGI (BT-549 breast): > 100 µM | TGI (HOP-92 NSCLC): > 100 µM | TGI (UACC-257 melanoma): > 100 µM | TGI (OVCAR-8 ovarian): > 100 µM | TGI (HCT-116 colon): > 100 µM | TGI (UO-31 renal): > 100 µM | TGI (LOX IMVI melanoma): > 100 µM | TGI (HCT-15 colon): > 100 µM | TGI (SK-MEL-28 melanoma): > 100 µM | TGI (M14 melanoma): > 100 µM | TGI (SNB-75 CNS): > 100 µM | TGI (T-47D breast): > 100 µM | TGI (HT29 colon): > 100 µM | TGI (TK-10 renal): > 100 µM | TGI (SF-295 CNS): > 100 µM | TGI (NCI/ADR-RES ovarian): > 100 µM | TGI (MDA-N): > 100 µM | TGI (SN12C renal): > 100 µM | TGI (OVCAR-4 ovarian): > 100 µM | TGI (A498 renal): > 100 µM | TGI (NCI-H522 lung): > 100 µM | TGI (UACC-62 melanoma): > 100 µM | TGI (CCRF-CEM leukemia): > 100 µM | TGI (786-0 renal): > 100 µM | TGI (CAKI-1 renal): > 100 µM | TGI (SF-539 CNS): > 100 µM | TGI (SK-OV-3 ovarian): > 100 µM | TGI (SNB-19 CNS): > 100 µM | TGI (PC-3 prostate): > 100 µM
